In PubChem BioAssay AID256 (DTP/NCI, 2004):
Values joined by “and” are separate entries in the source; they are usually repeats but may differ in a detail not shown here. Equal values may be shown once. Inconclusive results and toxic doses are left out. How the source made its calls: active means survival T/C of 150% or more; inactive means T/C below 125% in these data.

Test system: CD2F1 mice, L1210 leukemia ip, survival T/C
Experiment: NCI In Vivo Anticancer Drug Screen. Data for tumor model L1210 Leukemia (intraperitoneal) in CD2F1 (CDF1) mice
Settings: higher = longer survival
Outline: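 Implant tumor; dose compound or vehicle; measure endpoint in both groups; report treated divided by control.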

[1] = endpoint: mean survival time, dose: 50.0 mg/kg/injection, schedule: Q01DX009 (ip), vehicle: saline with Tween-80
[2] = endpoint: mean survival time, dose: 100.0 mg/kg/injection, schedule: Q01DX009 (ip), vehicle: saline with Tween-80
[3] = endpoint: mean survival time, dose: 100.0 mg/kg/injection, schedule: Q04DX003 (ip), vehicle: saline with Tween-80
[4] = endpoint: mean survival time, dose: 200.0 mg/kg/injection, schedule: Q04DX003 (ip), vehicle: saline with Tween-80
[5] = endpoint: mean survival time, dose: 400.0 mg/kg/injection, schedule: Q04DX003 (ip), vehicle: saline with Tween-80
[6] = endpoint: mean survival time, dose: 100.0 mg/kg/injection, schedule: Q01DX001 (ip), vehicle: saline with Tween-80
[7] = endpoint: mean survival time, dose: 200.0 mg/kg/injection, schedule: Q01DX001 (ip), vehicle: saline with Tween-80
[8] = endpoint: mean survival time, dose: 200.0 mg/kg/injection, schedule: Q01DX009 (ip), vehicle: saline with Tween-80
[9] = endpoint: mean survival time, dose: 400.0 mg/kg/injection, schedule: Q01DX009 (ip), vehicle: saline with Tween-80
[10] = endpoint: mean survival time, dose: 50.0 mg/kg/injection, schedule: Q01DX009 (ip), vehicle: Klucel (hydroxypropylcellulose) (HPC)
[11] = endpoint: mean survival time, dose: 100.0 mg/kg/injection, schedule: Q01DX009 (ip), vehicle: Klucel (hydroxypropylcellulose) (HPC)
[12] = endpoint: mean survival time, dose: 200.0 mg/kg/injection, schedule: Q01DX009 (ip), vehicle: Klucel (hydroxypropylcellulose) (HPC)

Measured: T/C

[C-]#[O+].[C-]#[O+].[C-]#[O+].[C-]#[O+].[C-]#[O+].[C-]#[O+].[Cr]
inactive: endpoint: mean survival time, dose: 25.0 mg/kg/injection, schedule: Q01DX009 (ip), vehicle: saline with Tween-80 103 % of control | [1] 97 % of control and 110 % of control | [2] 112 % of control

Cc1ccc([N+](=O)[O-])cc1NC(=O)C(Cl)(Cl)Cl
inactive: [3] 93 % of control | [4] 93 % of control | [5] 107 % of control

O=C1NC(=NC2CCCCC2)C2(CCNCC2)N1c1ccccc1
inactive: endpoint: mean survival time, dose: 50.0 mg/kg/injection, schedule: Q01DX001 (ip), vehicle: saline with Tween-80 102 % of control | [6] 106 % of control | [7] 104 % of control

CS(=O)(=O)SC(F)(F)F
inactive: endpoint: mean survival time, dose: 5.0 mg/kg/injection, schedule: Q01DX001 (ip), vehicle: saline 103 % of control

CCOc1ccc(Cl)cc1
inactive: [1] 96 % of control | [2] 98 % of control

C=C1C(=O)O[C@@H]2/C=C(/C)[C@@]3(O)C=C[C@](C)(C[C@@H](OC(=O)/C(=C\C)COC(C)=O)[C@@H]12)O3
inactive: endpoint: mean survival time, dose: 6.0 mg/kg/injection, schedule: Q01DX009 (ip), vehicle: saline with Tween-80 88 % of control | endpoint: mean survival time, dose: 8.0 mg/kg/injection, schedule: Q01DX009 (ip), vehicle: saline with Tween-80 94 % of control | endpoint: mean survival time, dose: 12.0 mg/kg/injection, schedule: Q01DX009 (ip), vehicle: saline with Tween-80 94 % of control | endpoint: mean survival time, dose: 18.0 mg/kg/injection, schedule: Q01DX009 (ip), vehicle: saline with Tween-80 98 % of control | endpoint: mean survival time, dose: 27.0 mg/kg/injection, schedule: Q01DX009 (ip), vehicle: saline with Tween-80 93 % of control

COc1ccc2nc(-c3ccc(F)cc3)cc(C(=O)O)c2c1
inactive: [3] 97 % of control | [4] 101 % of control | [5] 101 % of control

CC(C)(C)OC(=O)NC(CCC(=O)O)C(=O)OC(C)(C)C (stereo unspecified)
inactive: [2] 102 % of control | [8] 93 % of control | [9] 92 % of control

CC(=O)Nc1nc(Br)c2ccccc2c1-c1ccc(N(CCOS(C)(=O)=O)CCOS(C)(=O)=O)cc1
inactive: endpoint: mean survival time, dose: 12.5 mg/kg/injection, schedule: Q04DX003 (ip), vehicle: DMSO 105 % of control | endpoint: mean survival time, dose: 25.0 mg/kg/injection, schedule: Q04DX003 (ip), vehicle: DMSO 105 % of control | endpoint: mean survival time, dose: 50.0 mg/kg/injection, schedule: Q04DX003 (ip), vehicle: DMSO 110 % of control | endpoint: mean survival time, dose: 100.0 mg/kg/injection, schedule: Q04DX003 (ip), vehicle: DMSO 121 % of control

CCOC(=O)CCC(C#N)(CC(=O)OCC)C(=O)OCC (stereo unspecified)
inactive: [6] 96 % of control | [7] 104 % of control | endpoint: mean survival time, dose: 400.0 mg/kg/injection, schedule: Q01DX001 (ip), vehicle: saline with Tween-80 104 % of control

COc1ccc(NC(=O)Oc2ccc(NC(C)=O)cc2)c(Cl)c1
inactive: [10] 100 % of control | [11] 100 % of control | [12] 107 % of control

CC(=O)N(C)N=Nc1ccc(F)cc1
inactive: endpoint: mean survival time, dose: 25.0 mg/kg/injection, schedule: Q04DX003 (ip), vehicle: Klucel (hydroxypropylcellulose) (HPC) 105 % of control | endpoint: mean survival time, dose: 50.0 mg/kg/injection, schedule: Q04DX003 (ip), vehicle: Klucel (hydroxypropylcellulose) (HPC) 102 % of control | endpoint: mean survival time, dose: 100.0 mg/kg/injection, schedule: Q04DX003 (ip), vehicle: Klucel (hydroxypropylcellulose) (HPC) 105 % of control | endpoint: mean survival time, dose: 200.0 mg/kg/injection, schedule: Q04DX003 (ip), vehicle: Klucel (hydroxypropylcellulose) (HPC) 105 % of control

CC1=CC=CNC1(N)Br (stereo unspecified)
inactive: endpoint: mean survival time, dose: 100.0 mg/kg/injection, schedule: Q01DX001 (ip), vehicle: saline 100 % of control | endpoint: mean survival time, dose: 200.0 mg/kg/injection, schedule: Q01DX001 (ip), vehicle: saline 104 % of control | endpoint: mean survival time, dose: 400.0 mg/kg/injection, schedule: Q01DX001 (ip), vehicle: saline 100 % of control

O=C(NNC(=O)c1c(F)c(F)c(F)c(F)c1F)c1c(F)c(F)c(F)c(F)c1F
inactive: [2] 97 % of control | [8] 97 % of control

O=C(NC(=O)c1ccccc1)Nc1ccccc1
inactive: [2] 96 % of control | [3] 92 % of control | [4] 90 % of control | [9] 94 % of control | [5] 90 % of control

COc1cc(NC(C)=O)c2ncccc2c1Br
inactive: [3] 104 % of control | [4] 97 % of control | [5] 92 % of control

O=P(c1ccccc1)(c1ccccc1)c1ccccc1 (tested in a mixture with another compound)
inactive: endpoint: mean survival time, dose: 12.5 mg/kg/injection, schedule: Q01DX009 (ip), vehicle: other 100 % of control | endpoint: mean survival time, dose: 25.0 mg/kg/injection, schedule: Q01DX009 (ip), vehicle: other 100 % of control | endpoint: mean survival time, dose: 50.0 mg/kg/injection, schedule: Q01DX009 (ip), vehicle: other 101 % of control | endpoint: mean survival time, dose: 100.0 mg/kg/injection, schedule: Q01DX009 (ip), vehicle: other 96 % of control | endpoint: mean survival time, dose: 200.0 mg/kg/injection, schedule: Q01DX009 (ip), vehicle: other 103 % of control

CCCCCCCCCCCCCCCC(=O)Nc1ccc2c(c1)[nH]c(=O)c1cc(NC(=O)CCCCCCCCCCCCCCC)ccc12
inactive: endpoint: mean survival time, dose: 100.0 mg/kg/injection, schedule: Q04DX002 (ip), vehicle: saline with Tween-80 98 % of control | endpoint: mean survival time, dose: 200.0 mg/kg/injection, schedule: Q04DX002 (ip), vehicle: saline with Tween-80 111 % of control | endpoint: mean survival time, dose: 400.0 mg/kg/injection, schedule: Q04DX002 (ip), vehicle: saline with Tween-80 102 % of control

Nc1nc2c(c(=O)[nH]1)N1C(=O)N(c3ccc(C(=O)NC(CCC(=O)O)C(=O)O)cc3)CC1CN2 (stereo unspecified)
inactive: endpoint: mean survival time, dose: 100.0 mg/kg/injection, schedule: Q01DX001 (ip), vehicle: sodium bicarbonate 107 % of control | endpoint: mean survival time, dose: 200.0 mg/kg/injection, schedule: Q01DX001 (ip), vehicle: sodium bicarbonate 113 % of control | endpoint: mean survival time, dose: 400.0 mg/kg/injection, schedule: Q01DX001 (ip), vehicle: sodium bicarbonate 109 % of control

O=C(NCc1ccccc1)C(Cc1ccccc1)(Cc1ccccc1)C(=O)NCc1ccccc1
inactive: [1] 102 % of control | [2] 97 % of control | [8] 93 % of control

CC(C)(C)OOC(=O)c1ccc([N+](=O)[O-])cc1
inactive: [2] 101 % of control | [8] 97 % of control | [9] 101 % of control

CCC(N)(CO)CO
inactive: endpoint: mean survival time, dose: 100.0 mg/kg/injection, schedule: Q01DX009 (ip), vehicle: saline 100 % of control | endpoint: mean survival time, dose: 200.0 mg/kg/injection, schedule: Q01DX009 (ip), vehicle: saline 94 % of control | endpoint: mean survival time, dose: 400.0 mg/kg/injection, schedule: Q01DX009 (ip), vehicle: saline 94 % of control

O=C(O)c1ccccc1C(=O)NCc1ccccn1
inactive: [10] 90 % of control | [11] 97 % of control | [12] 101 % of control

CC1(C)CC(N2CCCOP2(=O)N(CCCl)CCCl)CC(C)(C)N1 (stereo unspecified)
inactive: endpoint: mean survival time, dose: 62.5 mg/kg/injection, schedule: Q01DX001 (ip), vehicle: water 105 % of control | endpoint: mean survival time, dose: 125.0 mg/kg/injection, schedule: Q01DX001 (ip), vehicle: water 100 % of control | endpoint: mean survival time, dose: 250.0 mg/kg/injection, schedule: Q01DX001 (ip), vehicle: water 106 % of control

C/C(=N\NC(=S)N1CC2CCC(CC2)C1)c1nccs1
inactive: endpoint: median survival time, dose: 3.13 mg/kg/injection, schedule: Q01DX009 (ip), vehicle: saline with Tween-80 103 % of control | endpoint: median survival time, dose: 6.25 mg/kg/injection, schedule: Q01DX009 (ip), vehicle: saline with Tween-80 112 % of control | endpoint: median survival time, dose: 12.5 mg/kg/injection, schedule: Q01DX009 (ip), vehicle: saline with Tween-80 113 % of control and 114 % of control and 110 % of control | endpoint: median survival time, dose: 25.0 mg/kg/injection, schedule: Q01DX009 (ip), vehicle: saline with Tween-80 115 % of control and 104 % of control | endpoint: median survival time, dose: 50.0 mg/kg/injection, schedule: Q01DX009 (ip), vehicle: saline with Tween-80 120 % of control and 95 % of control and 98 % of control
